system: HBV (encapsidated HBV DNA, HepG2.2.15 cells); test: HBV replication inhibition assay, BDNA assay in HepG2.2.15 cells; type: cell-based; conditions: Activity in BDNA-assay
Experimental: HBV replication inhibition by the disclosed compounds were determined in cells infected or transfected with HBV, or cells with stably integrated HBV, such as HepG2.2.15 cells (Sells et al. 1987). In this example, HepG2.2.15 cells were maintained in cell culture medium containing 10% fetal bovine serum (FBS), Geneticin, L-glutamine, penicillin and streptomycin. HepG2.2.15 cells were seeded in 96-well plates at a density of 40,000 cells/well and were treated with serially diluted compounds at a final DMSO concentration of 0.5% either alone or in combination by adding drugs in a checker box format. Cells were incubated with compounds for three days, after which medium was removed and fresh medium containing compounds was added to cells and incubated for another three days. At day 6, supernatant was removed and treated with DNase at 37° C. for 60 minutes, followed by enzyme inactivation at 75° C. for 15 minutes. Encapsidated HBV DNA was released from the virions and covalently linked HBV polymerase by incubating in lysis buffer (Affymetrix QS0010) containing 2.5 μg proteinase K at 50° C. for 40 minutes. HBV DNA was denatured by addition of 0.2 M NaOH and detected using a branched DNA (BDNA) QuantiGene assay kit according to manufacturer recommendation (Affymetrix). HBV DNA levels were also quantified using qPCR, based on amplification of encapsidated HBV DNA extraction with QuickExtraction Solution (Epicentre Biotechnologies) and amplification of HBV DNA using HBV specific PCR probes that can hybridize to HBV DNA and a fluorescently labeled probe for quantitation. In addition, cell viability of HepG2.2.15 cells incubated with test compounds alone or in combination was determined by using CellTitre-Glo reagent according to the manufacturer protocol (Promega). The mean background signal from wells containing only culture medium was subtracted from all other samples, and percent inhibition at each compound concentration was calculated by normalizing to signals from HepG2.2.15 cells treated with 0.5% DMSO using equation E1. % inhibition=(DMSOave−Xi)/DMSOave×100% E1: where DMSOave is the mean signal calculated from the wells that were treated with DMSO control (0% inhibition control) and Xi is the signal measured from the individual wells. EC50 values, effective concentrations that achieved 50% inhibitory effect, were determined by non-linear fitting using Graphpad Prism software (San Diego, Calif.) and equation E2: Y=Y min+(Y max −Y min)/(1+10(Log EC50−X)×HillSlope) E2: […]
where Y represents percent inhibition values and X represents the logarithm of compound concentrations.
Selected disclosed compounds were assayed in the HBV replication assay (BDNA assay), as described above and a representative group of these active compounds is shown in Table 6.

SMILES | EC50
CCC(O)C1CN(C)C(=O)c2c3c(nn2C1)CCN(C(=O)Nc1cc(Cl)c(F)cc1F)C3 (single isomer, unassigned) [Compound 096_E3, (S*)—N-(5-chloro-2,4-difluorophenyl)-8-((S*)-1-hydroxypropyl)-10-methyl-11-oxo-1,3,4,7,8,9,10,11-octahydro-2H-pyrido[4′,3′:3,4]pyrazolo[1,5-a][1,4]diazepine-2-carboxamide] | 100 to 500 nM
CC1CN(C)C(=O)c2c3c(nn2C1)C[C@@H](C)N(C(=O)Nc1ccc(F)c(Cl)c1)C3 (single isomer, unassigned) [Compound 080_D2, (3R,8R*)—N-(3-chloro-4-fluorophenyl)-3,8,10-trimethyl-11-oxo-3,4,8,9,10,11-hexahydro-1H-pyrido[4′,3′:3,4]pyrazolo[1,5-a][1,4]diazepine-2 (7H)-carboxamide] | 1 to 100 nM
CN1CC(CNCC(F)F)Cn2nc3c(c2C1=O)CN(C(=O)Nc1ccc(F)c(C#N)c1F)CC3 (single isomer, unassigned) [Compound 127_E1, (R*)—N-(3-cyano-2,4-difluorophenyl)-8-(((2,2-difluoroethyl)amino)methyl)-10-methyl-11-oxo-1,3,4,7,8,9,10,11-octahydro-2H-pyrido[4′,3′:3,4]pyrazolo[1,5-a][1,4]diazepine-2-carboxamide] | 500 to 1000 nM
CCC(O)C1CN(C)C(=O)c2c3c(nn2C1)CC(C)N(C(=O)Nc1ccc(F)c(C(F)(F)F)c1)C3 [Compound 107_D2, (3R,8R*)—N-(4-fluoro-3-(trifluoromethyl)phenyl)-8-((R)-1-hydroxypropyl)-3,10-dimethyl-11-oxo-1,3,4,7,8,9,10,11-octahydro-2H-pyrido[4′,3′:3,4]pyrazolo[1,5-a][1,4] diazepine-2-carboxamide] | 1 to 100 nM
CCC(O)C1CN(C)C(=O)c2c3c(nn2C1)CCN(C(=O)Nc1ccc(F)c(C(F)(F)F)c1)C3 (single isomer, unassigned) [Compound 099_E3, (S*)—N-(4-fluoro-3-(trifluoromethyl)phenyl)-8-((S*)-1-hydroxypropyl)-10-methyl-11-oxo-1,3,4,7,8,9,10,11-octahydro-2H-pyrido[4′,3′:3,4]pyrazolo[1,5-a][1,4]diazepine-2-carboxamide] | 1 to 100 nM
CCC(O)C1CN(C)C(=O)c2c3c(nn2C1)CCN(C(=O)Nc1ccc(F)c(C#N)c1)C3 (single isomer, unassigned) [Compound 097_E4, (R*)—N-(3-cyano-4-fluorophenyl)-8-((R*)-1-hydroxypropyl)-10-methyl-11-oxo-1,3,4,7,8,9,10,11-octahydro-2H-pyrido[4′,3′: 3,4]pyrazolo[1,5-a][1,4]diazepine-2-carboxamide] | 1 to 100 nM

same assay, conditions: Hepatitis B virus, HepG2.2.15, Activity in BDNA-assay

SMILES | EC50
C[C@@H]1Cc2nn3c(c2CN1C(=O)Nc1ccc(F)c(C#N)c1)C(=O)N(C)[C@H](CF)C3 [Compound 149, (3R,8S)-N-(3-cyano-4-fluorophenyl)-8-(fluoromethyl)-3,9-dimethyl-10-oxo-3,4,7,8,9,10-hexahydropyrido[4′,3′:3,4]pyrazolo[1,5-a]pyrazine-2(1H)-carboxamide] | 1 to 100 nM
CN1CC(CNCC(F)F)Cn2nc3c(c2C1=O)CN(C(=O)Nc1cc(Cl)c(F)cc1F)CC3 (single isomer, unassigned) [Compound 126_E1, (R*)—N-(5-chloro-2,4-difluorophenyl)-8-(((2,2-difluoroethyl)amino)methyl)-10-methyl-11-oxo-1,3,4,7,8,9,10,11-octahydro-2H-pyrido[4′,3′:3,4]pyrazolo[1,5-a][1,4]diazepine-2-carboxamide] | 100 to 500 nM
CN1CC(F)(F)Cn2nc3c(c2C1=O)CN(C(=O)Nc1ccc(F)c(Cl)c1)CC3 [Compound 005, N-(3-chloro-4-fluorophenyl)-8,8-difluoro-10-methyl-11-oxo-1,3,4,7,8,9,10,11-octahydro-2H-pyrido[4′,3′:3,4]pyrazolo[1,5-a][1,4]diazepine-2-carboxamide] | 1 to 100 nM
C[C@@H]1Cc2nn3c(c2CN1C(=O)Nc1ccc(F)c(Br)c1)C(=O)N(C)CC(CO)C3 (single isomer, unassigned) [Compound 086_D1, (3R,8S*)—N-(3-bromo-4-fluorophenyl)-8-(hydroxymethyl)-3,10-dimethyl-11-oxo-1,3,4,7,8,9,10,11-octahydro-2H-pyrido[4′,3′:3,4]pyrazolo[1,5-a][1,4]diazepine-2-carboxamide] | 1 to 100 nM
O=C(Nc1ccc(F)c(Cl)c1)N1CCc2nn3c(c2C1)C(=O)N(CC(F)(F)F)CC(CO)C3 (stereo not drawn) [Compound 051, N-(3-chloro-4-fluorophenyl)-8-(hydroxymethyl)-11-oxo-10-(2,2,2-trifluoroethyl)-1,3,4,7,8,9,10,11-octahydro-2H-pyrido[4′,3′: 3,4]pyrazolo[1,5-a][1,4]diazepine-2-carboxamide] | 1 to 100 nM
C[C@@H]1Cc2nn3c(c2CN1C(=O)Nc1ccc(F)c(C(F)(F)F)c1)C(=O)N(C)CC(F)C3 (single isomer, unassigned) [Compound 138, (3R,8R*)-8-fluoro-N-(4-fluoro-3-(trifluoromethyl)phenyl)-3,10-dimethyl-11-oxo-1,3,4,7,8,9,10,11-octahydro-2H-pyrido[4′,3′:3,4]pyrazolo[1,5-a][1,4]diazepine-2-carboxamide] | 1 to 100 nM
C[C@@H]1Cc2nn3c(c2CN1C(=O)Nc1ccc(F)c(C#N)c1F)C(=O)N(C)CC(CO)C3 (single isomer, unassigned) [Compound 088_D1, (3R,8S*)—N-(3-cyano-2,4-difluorophenyl)-8-(hydroxymethyl)-3,10-dimethyl-11-oxo-1,3,4,7,8,9,10,11-octahydro-2H-pyrido[4′,3′:3,4]pyrazolo[1,5-a][1,4]diazepine-2-carboxamide] | 1 to 100 nM
Cn1c(C(=O)O)cn2nc3c(c2c1=O)CN(C(=O)Nc1ccc(F)c(Cl)c1)CC3 [Compound 042, 2-((3-chloro-4-fluorophenyl)carbamoyl)-9-methyl-10-oxo-1,2,3,4,9,10-hexahydropyrido[4′,3′:3,4]pyrazolo[1,5-a]pyrazine-8-carboxylic acid] | > 1000 nM
CC1CN(C)C(=O)c2c3c(nn2C1)C[C@@H](C)N(C(=O)Nc1ccc(F)c(Cl)c1)C3 (single isomer, unassigned) [Compound 080_D1, (3R,8S*)—N-(3-chloro-4-fluorophenyl)-3,8,10-trimethyl-11-oxo-3,4,8,9,10,11-hexahydro-1H-pyrido[4′,3′,3,4]pyrazolo[1,5-a][1,4] diazepine-2 (7H)-carboxamide] | 1 to 100 nM
CN1CCCn2nc3c(c2C1=O)CN(C(=O)Nc1ccc(F)c(Cl)c1)CC3 [Compound 015, N-(3-chloro-4-fluoro-phenyl)-10-methyl-11-oxo-1,3,4,7,8,9-hexahydropyrido [2,3]pyrazolo[2,4-b][1,4]diazepine-2-carboxamide] | 1 to 100 nM
C[C@@H]1Cc2nn3c(c2CN1C(=O)Nc1cc(Cl)c(F)cc1F)C(=O)N(C)CC(CO)C3 (single isomer, unassigned) [Compound 090_D1, (3R,8S*)—N-(5-chloro-2,4-difluorophenyl)-8-(hydroxymethyl)-3,10-dimethyl-11-oxo-1,3,4,7,8,9,10,11-octahydro-2H-pyrido[4′,3′:3,4]pyrazolo[1,5-a][1,4]diazepine-2-carboxamide] | 1 to 100 nM
C[C@@H]1Cc2nn3c(c2CN1C(=O)Nc1ccc(F)c(C#N)c1)C(=O)N(CC(F)F)CCC3 [Compound 076, (R)—N-(3-cyano-4-fluorophenyl)-10-(2,2-difluoroethyl)-3-methyl-11-oxo-1,3,4,7,8,9,10,11-octahydro-2H-pyrido[4′,3′:3,4]pyrazolo[1,5-a][1,4]diazepine-2-carboxamide] | 1 to 100 nM
CN1CC(F)Cn2nc3c(c2C1=O)CN(C(=O)Nc1ccc(F)c(Cl)c1)CC3 (stereo not drawn) [Compound 006, N-(3-chloro-4-fluorophenyl)-8-fluoro-10-methyl-11-oxo-1,3,4,7,8,9,10,11-octahydro-2H-pyrido[4′,3′:3,4]pyrazolo[1,5-a][1,4]diazepine-2-carboxamide] | 1 to 100 nM
CN1C/C=C\Cn2nc3c(c2C1=O)CN(C(=O)Nc1ccc(F)c(Cl)c1)CC3 [Compound 111, (Z)—N-(3-chloro-4-fluorophenyl)-11-methyl-12-oxo-3,4,7,10,11,12-hexahydropyrido[4′,3′:3,4]pyrazolo[1,5-a][1,4]diazocine-2 (1H)-carboxamide] | 1 to 100 nM
CN1CC(CN)Cn2nc3c(c2C1=O)CN(C(=O)Nc1ccc(F)c(C#N)c1)CC3 (stereo not drawn) [Compound 095, 8-(aminomethyl)-N-(3-cyano-4-fluorophenyl)-10-methyl-11-oxo-1,3,4,7,8,9,10,11-octahydro-2H-pyrido[4′,3′:3,4]pyrazolo[1,5-a][1,4]diazepine-2-carboxamide] | 1 to 100 nM
